Reference: patent publication US20260223850A1, “SUBSTITUTED PYRROLIDONE COMPOUND, PREPARATION METHOD THEREFOR, COMPOSITION AND APPLICATION THEREOF” (QINGDAO KINGAGROOT CHEMICAL COMPOUND CO., LTD., priority 2023, published 2026)

Legend:
Assay in all cases: Seedling stage sealing experiment for water-seeding
Assay type in all cases: in vivo
[1] = system: Echinochloa crusgalli; settings: 120 g a.i./ha, seedling stage sealing, 15 days, fresh weight control rate
[2] = system: Echinochloa phyllopogon; settings: 120 g a.i./ha, seedling stage sealing, 15 days, fresh weight control rate
How it was run: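 Read-out: 0–9 damage level from fresh-weight control rate (9 = completely dead, 1 = under 10%, 0 = no effect), averaged over triplicates, taken 15 days after spraying. Doses were 120, 60, 30 and 15 g a.i./ha, acetone/water solution, spray tower.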

[3] = system: Leptochloa chinensis; settings: 120 g a.i./ha, 15 days, fresh weight control rate
Source text: (1) Seedling Stage Sealing Experiment for Water-Seeding:
The activity level criteria for plant damage (i.e., growth control rate) are as follows: • Level 9: completely dead; • Level 8: growth control rate greater than or equal to 90% and less than 100%; • Level 7: growth control rate greater than or equal to 80% and less than 90%; • Level 6: growth control rate greater than or equal to 70% and less than 80%; • Level 5: growth control rate greater than or equal to 50% and less than 70%; • Level 4: growth control rate greater than or equal to 30% and less than 50%; • Level 3: growth control rate greater than or equal to 20% and less than 30%; • Level 2: growth control rate greater than or equal to 10% and less than 20%; • Level 1: growth control rate less than 10%; • Level 0: no effect.
The above growth control rates are fresh weight control rates.
Echinochloa phyllopogon, Digitaria sanguinalis, Huaidao (rice cultivar), etc. were broadcasted on the surface of nutrition bowls filled with soil and fully covered by soil. The foregoing well-prepared nutrition bowls were then placed in a cultivation box with water filled to a suitable height to keep the soil in the nutrition bowls moist. A test compound of the present invention was individually dissolved with acetone, then diluted into solution of a certain concentration using a certain amount of water, and sprayed using a spray tower. The plants were placed on a greenhouse seedbed and cultured for 15 days, and the experimental results were then collected. The compound was applied at 120, 60, 30 and 15 g a.i./ha in triplicate, and the results were averaged.

SMILES	Echinochloa crusgalli activity level (growth control rate) [1]	Echinochloa phyllopogon activity level (growth control rate) [2]	Leptochloa chinensis activity level (growth control rate) [3]
CN1C[C@H](c2ccc(F)c(Cl)c2)[C@@H](C(=O)Nc2c(O)nn(C)c2F)C1=O [311′]	9	8 (Level 8: growth control rate greater than or equal to 90% and less than 100%)	9
CN1C[C@H](c2ccc(C(F)(F)F)c(F)c2)[C@@H](C(=O)Nc2cnn(C)c2Cl)C1=O [315′]	9	8 (Level 8: growth control rate greater than or equal to 90% and less than 100%)	9
CC(C)Oc1cc([C@H]2CN(C)C(=O)[C@@H]2C(=O)Nc2cnn(C)c2Cl)ccc1F [318′]	9	8 (Level 8: growth control rate greater than or equal to 90% and less than 100%)	8 (Level 8: growth control rate greater than or equal to 90% and less than 100%)
COc1cc([C@H]2CN(C)C(=O)[C@@H]2C(=O)Nc2cnn(C)c2Cl)ccc1Cl [319′]	5 (Level 5: growth control rate greater than or equal to 50% and less than 70%)	5 (Level 5: growth control rate greater than or equal to 50% and less than 70%)	6 (Level 6: growth control rate greater than or equal to 70% and less than 80%)
COc1cc([C@H]2CN(C)C(=O)[C@@H]2C(=O)Nc2cnn(C)c2Cl)ccc1C [321′]	9	6 (Level 6: growth control rate greater than or equal to 70% and less than 80%)	7 (Level 7: growth control rate greater than or equal to 80% and less than 90%)
CN1C[C@H](c2ccc3ccccc3c2)[C@@H](C(=O)Nc2cnn(C)c2Cl)C1=O [353′]	9	7 (Level 7: growth control rate greater than or equal to 80% and less than 90%)	9
CN1CC(c2cccc(Cl)c2)C(C(=O)Nc2cnn(C)c2Cl)C1=O (stereo not drawn) [Compound 16]	6 (Level 6: growth control rate greater than or equal to 70% and less than 80%)	5 (Level 5: growth control rate greater than or equal to 50% and less than 70%)	9
C=CCc1cccc(C2CN(C)C(=O)C2C(=O)Nc2cnn(C)c2Cl)c1 (stereo not drawn) [Compound 24]	9	8 (Level 8: growth control rate greater than or equal to 90% and less than 100%)	9
CN1CC(c2cccc(OC(F)(F)F)c2)C(C(=O)Nc2cnn(C)c2Cl)C1=O (stereo not drawn) [Compound 33]	9	5 (Level 5: growth control rate greater than or equal to 50% and less than 70%)	9
CN1CC(c2cc(F)cc(C(F)(F)F)c2)C(C(=O)Nc2cnn(C)c2Cl)C1=O (stereo not drawn) [Compound 67]	9	6 (Level 6: growth control rate greater than or equal to 70% and less than 80%)	9
CN1CC(c2cc(C(F)(F)F)ccc2F)C(C(=O)Nc2cnn(C)c2Cl)C1=O (stereo not drawn) [Compound 80]	6 (Level 6: growth control rate greater than or equal to 70% and less than 80%)	6 (Level 6: growth control rate greater than or equal to 70% and less than 80%)	6 (Level 6: growth control rate greater than or equal to 70% and less than 80%)
